Laboratory results as given in patent US11759455B2, “Substituted 1H-imidazo[4,5-b]pyridin-2(3H)-ones and their use as GLUN2B receptor modulators” (JANSSEN PHARMACEUTICA NV, priority 2016, dated 2023).
Where two headings read alike, the source gives them in different places.

Molecular target: T1, human GluN1/GluN2B NMDA receptors (Homo sapiens, UniProt Q13224)
T1 construct: expressed in transfected cells
Assay: Cell-based calcium flux (FLIPR) assay on cloned human NR1/NR2B ion channels expressed in mammalian cells (standard and HTS buffer variants);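 note: stable Tet-On inducible cell line, Ca2+ influx triggered by glutamate at about EC40 plus 10 µM glycine, fluorescent dye read-out over 5 min, normalized to control wells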

[1] = HTS assay buffer (1.5 mM MgCl2 dye loading; 150 mM NaCl, 3 mM KCl assay buffer), human GluN1/GluN2B cells, read-out: NR2B IC50 (μM) HTS assay
[2] = standard assay buffer (0.5 mM MgCl2 in dye loading buffer; 137 mM NaCl, 4 mM KCl in assay buffer), human GluN1/GluN2B, read-out: NR2B IC50 (μM) standard assay
[3] = HTS assay buffer (1.5 mM MgCl2 in dye loading buffer; 150 mM NaCl, 3 mM KCl in assay buffer), human GluN1/GluN2B, read-out: NR2B IC50 (μM) HTS assay
[4] = standard assay buffer (0.5 mM MgCl2 dye loading; 137 mM NaCl, 4 mM KCl assay buffer), human GluN1/GluN2B cells, read-out: NR2B IC50 (μM) standard assay

T1 sequence (Q13224 27-1484, other chains not shown): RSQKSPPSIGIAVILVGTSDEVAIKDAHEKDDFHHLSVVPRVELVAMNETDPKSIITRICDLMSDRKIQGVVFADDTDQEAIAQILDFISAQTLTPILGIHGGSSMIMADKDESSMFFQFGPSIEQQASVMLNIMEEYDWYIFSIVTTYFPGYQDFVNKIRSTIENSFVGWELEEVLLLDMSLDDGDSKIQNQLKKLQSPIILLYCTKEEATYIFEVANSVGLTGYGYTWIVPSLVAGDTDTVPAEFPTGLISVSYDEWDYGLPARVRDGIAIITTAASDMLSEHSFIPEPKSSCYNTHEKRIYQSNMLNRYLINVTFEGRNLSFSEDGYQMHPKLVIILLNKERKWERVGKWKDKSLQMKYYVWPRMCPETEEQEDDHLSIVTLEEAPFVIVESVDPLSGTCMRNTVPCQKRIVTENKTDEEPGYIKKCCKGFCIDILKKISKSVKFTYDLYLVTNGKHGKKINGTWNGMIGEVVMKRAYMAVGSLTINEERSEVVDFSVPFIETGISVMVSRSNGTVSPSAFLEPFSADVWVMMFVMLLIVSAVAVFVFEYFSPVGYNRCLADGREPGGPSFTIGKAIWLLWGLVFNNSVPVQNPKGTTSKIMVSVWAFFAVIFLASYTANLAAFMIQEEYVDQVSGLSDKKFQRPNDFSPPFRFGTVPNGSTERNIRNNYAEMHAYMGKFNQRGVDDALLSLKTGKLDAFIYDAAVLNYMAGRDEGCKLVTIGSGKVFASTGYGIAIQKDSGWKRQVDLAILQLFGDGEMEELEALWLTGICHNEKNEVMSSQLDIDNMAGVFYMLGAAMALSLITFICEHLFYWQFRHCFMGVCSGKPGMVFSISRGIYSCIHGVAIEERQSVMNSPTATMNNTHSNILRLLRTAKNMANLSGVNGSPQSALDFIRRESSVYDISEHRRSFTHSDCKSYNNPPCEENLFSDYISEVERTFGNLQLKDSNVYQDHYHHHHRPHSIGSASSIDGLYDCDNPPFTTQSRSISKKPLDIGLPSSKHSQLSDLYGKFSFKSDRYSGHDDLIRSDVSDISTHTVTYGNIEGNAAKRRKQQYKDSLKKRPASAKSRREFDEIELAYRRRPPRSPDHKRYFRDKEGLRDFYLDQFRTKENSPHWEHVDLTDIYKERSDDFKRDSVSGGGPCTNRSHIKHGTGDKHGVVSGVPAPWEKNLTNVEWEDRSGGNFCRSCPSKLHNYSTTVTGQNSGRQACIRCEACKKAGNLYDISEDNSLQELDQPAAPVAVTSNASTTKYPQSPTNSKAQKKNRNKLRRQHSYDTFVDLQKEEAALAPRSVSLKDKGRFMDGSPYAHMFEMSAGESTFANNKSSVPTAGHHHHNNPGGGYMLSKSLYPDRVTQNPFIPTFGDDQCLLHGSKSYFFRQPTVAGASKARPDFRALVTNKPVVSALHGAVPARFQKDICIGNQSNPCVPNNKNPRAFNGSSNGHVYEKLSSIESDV

Row | SMILES | IC50 [4] [µM] | other results
1 | COc1ccc(-c2cnc3[nH]c(=O)n(CC(=O)N4CCCC4)c3c2)cc1 [Example 35, 6-(4-Methoxyphenyl)-1-(2-oxo-2-pyrrolidin-1-yl-ethyl)-3H-imidazo[4,5-b]pyridin-2-one] |  | IC50 [1]: 2.14 µM
2 | Cn1c(=O)n(Cc2cccnn2)c2cc(-c3cc(F)cc(C(F)(F)F)c3)cnc21 [Example 383, 6-[3-Fluoro-5-(trifluoromethyl)phenyl]-3-methyl-1-(pyridazin-3-ylmethyl)imidazo[4,5-b]pyridin-2-one] |  | IC50 [2]: 0.041 µM
3 | Cc1cc(F)ccc1-c1cnc2[nH]c(=O)n(Cc3ccccc3C#N)c2c1 [Example 483, 2-[[6-(4-Fluoro-2-methyl-phenyl)-2-oxo-3H-imidazo[4,5-b]pyridin-1-yl]methyl]benzonitrile] |  | IC50 [3]: 1.8 µM
4 | Cc1nnc(Cn2c(=O)n(C)c3ncc(-c4cccc(C(F)(F)F)c4)cc32)o1 [Example 75, 3-Methyl-1-[(5-methyl-1,3,4-oxadiazol-2-yl)methyl]-6-[3-(trifluoromethyl)phenyl]imidazo[4,5-b]pyridin-2-one] | 0.093 | 
5 | Cn1c(=O)n(Cc2csnn2)c2cc(-c3ccc(C(F)(F)F)s3)cnc21 [Example 568, 3-Methyl-1-(thiadiazol-4-ylmethyl)-6-[5-(trifluoromethyl)-2-thienyl]imidazo[4,5-b]pyridin-2-one] |  | IC50 [2]: 0.305 µM
6 | CN(C)C(=O)Cn1c(=O)n(C)c2ncc(-c3ccc(F)s3)cc21 [Example 82, 2-[6-(5-Fluoro-2-thienyl)-3-methyl-2-oxo-imidazo[4,5-b]pyridin-1-yl]-N,N-dimethyl-acetamide] | 0.154 | 
7 | CN(C)C(=O)Cn1c(=O)n(C)c2ncc(-c3cc(F)c(F)c(C(F)(F)F)c3)cc21 [Example 431, 2-[6-[3,4-Difluoro-5-(trifluoromethyl)phenyl]-3-methyl-2-oxo-imidazo[4,5-b]pyridin-1-yl]-N,N-dimethyl-acetamide] |  | IC50 [2]: 0.095 µM
8 | CNC(=O)Cn1c(=O)[nH]c2ncc(-c3ccc(F)cc3OC)cc21 [Example 440, 2-[6-(4-Fluoro-2-methoxy-phenyl)-2-oxo-3H-imidazo[4,5-b]pyridin-1-yl]-N-methyl-acetamide] |  | IC50 [2]: 0.358 µM
9 | COCCNC(=O)Cn1c(=O)[nH]c2ncc(-c3cccnc3)cc21 [Example 445, N-(2-Methoxyethyl)-2-[2-oxo-6-(3-pyridyl)-3H-imidazo[4,5-b]pyridin-1-yl]acetamide] |  | IC50 [3]: > 29 µM
10 | Cc1cc(F)cc(-c2cnc3c(c2)n(Cc2cccnn2)c(=O)n3C)c1 [Example 381, 6-(3-Fluoro-5-methyl-phenyl)-3-methyl-1-(pyridazin-3-ylmethyl)imidazo[4,5-b]pyridin-2-one] |  | IC50 [2]: 0.037 µM
11 | COc1ccc(-c2cnc3[nH]c(=O)n(Cc4cc(C)on4)c3c2)cc1C [Example 515, 6-(4-Methoxy-3-methyl-phenyl)-1-[(5-methylisoxazol-3-yl)methyl]-3H-imidazo[4,5-b]pyridin-2-one] |  | IC50 [3]: 0.156 µM
12 | Cc1nnc(Cn2c(=O)[nH]c3ncc(-c4ccc(F)cc4)cc32)o1 [Example 13, 6-(4-Fluorophenyl)-1-[(5-methyl-1,3,4-oxadiazol-2-yl)methyl]-3H-imidazo[4,5-b]pyridin-2-one] | 0.076 | 
13 | CCOc1ccc(F)cc1-c1cnc2[nH]c(=O)n(CC3CC3)c2c1 [Example 466, 1-(Cyclopropylmethyl)-6-(2-ethoxy-5-fluoro-phenyl)-3H-imidazo[4,5-b]pyridin-2-one] |  | IC50 [3]: 15.8 µM
14 | Cn1cc(Cn2c(=O)n(C)c3ncc(-c4ccc(F)c(F)c4)cc32)cn1 [Example 550, 6-(3,4-Difluorophenyl)-3-methyl-1-[(1-methylpyrazol-4-yl)methyl]imidazo[4,5-b]pyridin-2-one] |  | IC50 [2]: 0.697 µM
15 | Cc1cc(Cn2c(=O)[nH]c3ncc(-c4ccc(F)cc4)cc32)no1 [Example 12, 6-(4-Fluorophenyl)-1-[(5-methylisoxazol-3-yl)methyl]-3H-imidazo[4,5-b]pyridin-2-one] | 0.029 | 
16 | O=c1[nH]c2ncc(-c3ccc(F)cc3)cc2n1Cc1cccnc1 [Example 295, 6-(4-Fluorophenyl)-1-(3-pyridylmethyl)-3H-imidazo[4,5-b]pyridin-2-one] | 0.098 | 
17 | N#Cc1cccc(-c2cnc3[nH]c(=O)n(Cc4ccccc4C#N)c3c2)c1 [Example 486, 2-[[6-(3-Cyanophenyl)-2-oxo-3H-imidazo[4,5-b]pyridin-1-yl]methyl]benzonitrile] |  | IC50 [3]: 3.84 µM
18 | COc1cccc(-c2cnc3[nH]c(=O)n(CC(=O)c4cccs4)c3c2)c1 [Example 602, 6-(3-Methoxyphenyl)-1-[2-oxo-2-(2-thienyl)ethyl]-3H-imidazo[4,5-b]pyridin-2-one] |  | IC50 [2]: 0.204 µM
19 | Cn1c(=O)n(Cc2cccnc2)c2cc(-c3ccc(F)c(F)c3F)cnc21 [Example 361, 3-Methyl-1-(3-pyridylmethyl)-6-(2,3,4-trifluorophenyl)imidazo[4,5-b]pyridin-2-one] |  | IC50 [2]: 1.54 µM
20 | Cc1cccc(-c2cnc3c(c2)n(CC(=O)N2CC(F)(F)C2)c(=O)n3C)c1F [Example 418, 1-[2-(3,3-Difluoroazetidin-1-yl)-2-oxo-ethyl]-6-(2-fluoro-3-methyl-phenyl)-3-methyl-imidazo[4,5-b]pyridin-2-one] |  | IC50 [2]: 0.019 µM
21 | Cn1c(=O)n(Cc2cccnn2)c2cc(-c3ccc(F)c(Cl)c3)cnc21 [Example 380, 6-(3-Chloro-4-fluoro-phenyl)-3-methyl-1-(pyridazin-3-ylmethyl)imidazo[4,5-b]pyridin-2-one] |  | IC50 [2]: 0.016 µM
22 | CCc1ccc(-c2cnc3c(c2)n(CC(=O)N2CCC2)c(=O)n3C)s1 [Example 87, 1-[2-(Azetidin-1-yl)-2-oxo-ethyl]-6-(5-ethyl-2-thienyl)-3-methyl-imidazo[4,5-b]pyridin-2-one] | 0.021 | 
23 | Cc1cccnc1Cn1c(=O)[nH]c2ncc(-c3ccc(F)c(C)c3F)cc21 [Example 317, 6-(2,4-Difluoro-3-methyl-phenyl)-1-[(3-methyl-2-pyridyl)methyl]-3H-imidazo[4,5-b]pyridin-2-one] |  | IC50 [2]: 0.046 µM
24 | COc1ccc(-c2cnc3[nH]c(=O)n(CC(=O)NC4CC4)c3c2)cc1 [Example 38, N-Cyclopropyl-2-[6-(4-methoxyphenyl)-2-oxo-3H-imidazo[4,5-b]pyridin-1-yl]acetamide] |  | IC50 [1]: 1.01 µM

Second part, led by results:

Row | IC50 [4] [µM] | SMILES | other results
25 | 0.205 | Cn1c(=O)n(CC(=O)N2CCCC2)c2cc(-c3cccc(C(F)(F)F)c3)cnc21 [Example 197, 3-Methyl-1-(2-oxo-2-pyrrolidin-1-yl-ethyl)-6-[3-(trifluoromethyl)phenyl]imidazo[4,5-b]pyridin-2-one] | 
26 | 0.115 | Cc1cc(F)ccc1-c1cnc2[nH]c(=O)n(CCN3CCC3)c2c1 [Example 151, 1-[2-(Azetidin-1-yl)ethyl]-6-(4-fluoro-2-methyl-phenyl)-3H-imidazo[4,5-b]pyridin-2-one] | 
27 | 0.033 | O=C(Cn1c(=O)[nH]c2ncc(-c3cccc(C(F)(F)F)c3)cc21)N1CCCC1 [Example 201, 1-(2-Oxo-2-pyrrolidin-1-yl-ethyl)-6-[3-(trifluoromethyl)phenyl]-3H-imidazo[4,5-b]pyridin-2-one] | 
28 | 20.7 | Cc1cccc(C)c1-c1cnc2[nH]c(=O)n(CCN3CCCC3)c2c1 [Example 178, 6-(2,6-Dimethylphenyl)-1-(2-pyrrolidin-1-ylethyl)-3H-imidazo[4,5-b]pyridin-2-one] | 
29 | 0.093 | CC(C)C(=O)Cn1c(=O)[nH]c2ncc(-c3cccc(C(F)(F)F)c3)cc21 [Example 241, 1-(3-Methyl-2-oxo-butyl)-6-[3-(trifluoromethyl)phenyl]-3H-imidazo[4,5-b]pyridin-2-one] | 
30 | 0.21 | Cc1c(F)ccc(-c2cnc3[nH]c(=O)n(CCN4CCC4)c3c2)c1C [Example 171, 1-[2-(Azetidin-1-yl)ethyl]-6-(4-fluoro-2,3-dimethyl-phenyl)-3H-imidazo[4,5-b]pyridin-2-one] | 
31 | 0.396 | Cc1ccc(C(F)(F)F)cc1-c1cnc2[nH]c(=O)n(CC(=O)N3CCC3)c2c1 [Example 29, 1-[2-(Azetidin-1-yl)-2-oxo-ethyl]-6-[2-methyl-5-(trifluoromethyl)phenyl]-3H-imidazo[4,5-b]pyridin-2-one] | 
32 | 0.022 | CCC(=O)Cn1c(=O)[nH]c2ncc(-c3cccc(C(F)(F)F)c3)cc21 [Example 240, 1-(2-Oxobutyl)-6-[3-(trifluoromethyl)phenyl]-3H-imidazo[4,5-b]pyridin-2-one] | 
33 | 0.311 | O=c1[nH]c2ncc(-c3cccc(OC(F)(F)F)c3)cc2n1CCN1CCC1 [Example 160, 1-[2-(Azetidin-1-yl)ethyl]-6-[3-(trifluoromethoxy)phenyl]-3H-imidazo[4,5-b]pyridin-2-one] | 
34 | 0.132 | COC1CN(C(=O)Cn2c(=O)[nH]c3ncc(-c4cccc(C(F)(F)F)c4)cc32)C1 [Example 191, 1-[2-(3-Methoxyazetidin-1-yl)-2-oxo-ethyl]-6-[3-(trifluoromethyl)phenyl]-3H-imidazo[4,5-b]pyridin-2-one] | 
35 | 0.094 | Cc1ncc(Cn2c(=O)[nH]c3ncc(-c4cccc(C(F)(F)F)c4)cc32)cn1 [Example 231, 1-[(2-Methylpyrimidin-5-yl)methyl]-6-[3-(trifluoromethyl)phenyl]-3H-imidazo[4,5-b]pyridin-2-one] | 
36 | 0.048 | Cn1c(=O)n(CC(=O)N2CCC2)c2cc(-c3csc(C(F)(F)F)c3)cnc21 [Example 104, 1-[2-(Azetidin-1-yl)-2-oxo-ethyl]-3-methyl-6-[5-(trifluoromethyl)-3-thienyl]imidazo[4,5-b]pyridin-2-one] | 
37 | 1.75 | O=c1[nH]c2ncc(-c3ccnc(C(F)(F)F)c3)cc2n1CCN1CCC1 [Example 155, 1-[2-(Azetidin-1-yl)ethyl]-6-[2-(trifluoromethyl)-4-pyridyl]-3H-imidazo[4,5-b]pyridin-2-one] | 
